Reference: PubChem BioAssay AID248 (DTP/NCI, 2004)
Several values for one entry are separate records, joined by “and”; a condition that tells them apart may be missing. Equal entries are not always repeated. Toxic doses and inconclusive results are not listed.

Test system: L1210 leukemia ip in BDF1 mice, survival T/C
Test: NCI In Vivo Anticancer Drug Screen. Data for tumor model L1210 Leukemia (intraperitoneal) in B6D2F1 (BDF1) mice
Conditions: endpoint: mean survival time, higher = longer survival
Summary of the method: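 Transplantable tumor model; survival measured in treated vs vehicle control mice. Value = treated/control.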

[1] = dose: 5.0 mg/kg/injection, schedule: Q01DX009 (ip), vehicle: Klucel (hydroxypropylcellulose) (HPC)
[2] = dose: 100.0 mg/kg/injection, schedule: Q01DX009 (ip), vehicle: Klucel (hydroxypropylcellulose) (HPC)
[3] = dose: 100.0 mg/kg/injection, schedule: Q04DX003 (ip), vehicle: Klucel (hydroxypropylcellulose) (HPC)
[4] = dose: 200.0 mg/kg/injection, schedule: Q01DX009 (ip), vehicle: Klucel (hydroxypropylcellulose) (HPC)
[5] = dose: 400.0 mg/kg/injection, schedule: Q04DX003 (ip), vehicle: Klucel (hydroxypropylcellulose) (HPC)
[6] = dose: 12.5 mg/kg/injection, schedule: Q01DX009 (ip), vehicle: Klucel (hydroxypropylcellulose) (HPC)
[7] = dose: 25.0 mg/kg/injection, schedule: Q01DX009 (ip), vehicle: Klucel (hydroxypropylcellulose) (HPC)
[8] = dose: 50.0 mg/kg/injection, schedule: Q01DX009 (ip), vehicle: Klucel (hydroxypropylcellulose) (HPC)
[9] = dose: 200.0 mg/kg/injection, schedule: Q04DX003 (ip), vehicle: Klucel (hydroxypropylcellulose) (HPC)
[10] = dose: 75.0 mg/kg/injection, schedule: Q01DX001 (ip), vehicle: saline
[11] = dose: 75.0 mg/kg/injection, schedule: Q04DX003 (ip), vehicle: saline
[12] = dose: 150.0 mg/kg/injection, schedule: Q01DX001 (ip), vehicle: saline
[13] = dose: 100.0 mg/kg/injection, schedule: Q01DX001 (ip), vehicle: carboxymethylcellulose (CMC)
[14] = dose: 200.0 mg/kg/injection, schedule: Q01DX001 (ip), vehicle: carboxymethylcellulose (CMC)
[15] = dose: 100.0 mg/kg/injection, schedule: Q04DX003 (ip), vehicle: saline with Tween-80
[16] = dose: 200.0 mg/kg/injection, schedule: Q04DX003 (ip), vehicle: saline with Tween-80
[17] = dose: 400.0 mg/kg/injection, schedule: Q04DX003 (ip), vehicle: saline with Tween-80

CCC(=O)NC1=C(N2CC2)C(=O)C(NC(=O)CC)=C(N2CC2)C1=O
T/C (dose: 0.31 mg/kg/injection, schedule: Q01DX009 (ip), vehicle: Klucel (hydroxypropylcellulose) (HPC)): 121 % of control | T/C (dose: 1.25 mg/kg/injection, schedule: Q01DX001 (ip), vehicle: saline with Tween-80): 115 % of control | T/C (dose: 1.25 mg/kg/injection, schedule: Q01DX001 (ip), vehicle: saline): 108 % of control | T/C (dose: 1.25 mg/kg/injection, schedule: Q01DX009 (ip), vehicle: Klucel (hydroxypropylcellulose) (HPC)): 162 % of control | T/C (dose: 2.5 mg/kg/injection, schedule: Q01DX001 (ip), vehicle: saline): 119 % of control | T/C (dose: 2.5 mg/kg/injection, schedule: Q04DX003 (ip), vehicle: Klucel (hydroxypropylcellulose) (HPC)): 175 % of control | T/C (dose: 5.0 mg/kg/injection, schedule: Q01DX001 (ip), vehicle: saline with Tween-80): 167 % of control | T/C [1]: 104 % of control | T/C (dose: 5.0 mg/kg/injection, schedule: Q01DX009 (ip), vehicle: saline): 100 % of control | T/C (dose: 5.0 mg/kg/injection, schedule: Q04DX003 (ip), vehicle: Klucel (hydroxypropylcellulose) (HPC)): 102 % of control | T/C (dose: 10.0 mg/kg/injection, schedule: Q01DX001 (ip), vehicle: saline with Tween-80): 169 % of control | T/C (dose: 10.0 mg/kg/injection, schedule: Q01DX009 (ip), vehicle: saline): 93 % of control | T/C (dose: 10.0 mg/kg/injection, schedule: Q04DX003 (ip), vehicle: Klucel (hydroxypropylcellulose) (HPC)): 90 % of control

O=C1OCC/C1=C/CCCC/C=C1\CCOC1=O
T/C [2]: 93 % of control | T/C [3]: 94 % of control | T/C [4]: 98 % of control | T/C (dose: 266.0 mg/kg/injection, schedule: Q04DX003 (ip), vehicle: Klucel (hydroxypropylcellulose) (HPC)): 93 % of control | T/C [5]: 94 % of control

CN(C(=O)Cl)c1ccccc1
T/C [6]: 95 % of control | T/C (dose: 12.5 mg/kg/injection, schedule: Q04DX003 (ip), vehicle: Klucel (hydroxypropylcellulose) (HPC)): 95 % of control | T/C [7]: 95 % of control | T/C (dose: 25.0 mg/kg/injection, schedule: Q04DX003 (ip), vehicle: Klucel (hydroxypropylcellulose) (HPC)): 97 % of control | T/C [8]: 93 % of control | T/C (dose: 50.0 mg/kg/injection, schedule: Q04DX003 (ip), vehicle: Klucel (hydroxypropylcellulose) (HPC)): 93 % of control

Cc1cc(=O)oc2cc(OC(=O)Nc3ccc(F)c(Cl)c3)ccc12
T/C (dose: 3.12 mg/kg/injection, schedule: Q01DX009 (ip), vehicle: Klucel (hydroxypropylcellulose) (HPC)): 102 % of control | T/C (dose: 6.25 mg/kg/injection, schedule: Q01DX009 (ip), vehicle: Klucel (hydroxypropylcellulose) (HPC)): 96 % of control | T/C [6]: 93 % of control and 92 % of control | T/C [3]: 97 % of control | T/C [9]: 100 % of control | T/C [5]: 101 % of control

CCC[CH2][Sn]1([CH2]CCC)[O]CC[S]1
T/C (dose: 5.0 mg/kg/injection, schedule: Q01DX001 (ip), vehicle: saline): 111 % of control

CCC[n+]1cccc(C#N)c1
T/C (dose: 37.5 mg/kg/injection, schedule: Q04DX003 (ip), vehicle: saline): 97 % of control | T/C [10]: 94 % of control | T/C [11]: 100 % of control | T/C [12]: 103 % of control

N#CCCOCC[CH2][Sn]([c]1ccccc1)([c]1ccccc1)[c]1ccccc1
T/C (dose: 100.0 mg/kg/injection, schedule: Q04DX002 (ip), vehicle: saline with Tween-80): 94 % of control | T/C (dose: 200.0 mg/kg/injection, schedule: Q04DX002 (ip), vehicle: saline with Tween-80): 94 % of control | T/C (dose: 400.0 mg/kg/injection, schedule: Q04DX002 (ip), vehicle: saline with Tween-80): 91 % of control

O=C(O)C1CCN1Cc1ccccc1 (stereo unspecified)
T/C (dose: 100.0 mg/kg/injection, schedule: Q04DX003 (ip), vehicle: saline): 98 % of control | T/C (dose: 200.0 mg/kg/injection, schedule: Q04DX003 (ip), vehicle: saline): 101 % of control | T/C (dose: 400.0 mg/kg/injection, schedule: Q04DX003 (ip), vehicle: saline): 106 % of control

CCN(CC)CCN(C)C(=O)C(=O)c1ccccc1
T/C [10]: 98 % of control | T/C [12]: 101 % of control

COc1ccc(OC(C)=O)c(C=O)c1
T/C [13]: 100 % of control | T/C [14]: 103 % of control

Cc1ccccc1N
T/C [15]: 101 % of control | T/C [16]: 103 % of control | T/C [17]: 95 % of control

Cn1cnccc1=S
T/C (dose: 25.0 mg/kg/injection, schedule: Q01DX001 (ip), vehicle: saline): 96 % of control | T/C (dose: 50.0 mg/kg/injection, schedule: Q01DX001 (ip), vehicle: saline): 108 % of control

Clc1nc(Cl)nc(Cl)n1
T/C (dose: 100.0 mg/kg/injection, schedule: Q04DX002 (ip), vehicle: other): 98 % of control | T/C (dose: 200.0 mg/kg/injection, schedule: Q04DX002 (ip), vehicle: other): 95 % of control

Cc1cc(N(CCOS(C)(=O)=O)CCOS(C)(=O)=O)ccc1C=Nc1ccc(-c2csc(-c3ccc(Cl)cc3)n2)cc1
T/C [7]: 112 % of control | T/C [8]: 86 % of control

c1ccc2ocnc2c1
T/C [3]: 94 % of control | T/C [9]: 96 % of control | T/C [5]: 113 % of control

O=C(c1ccccc1)c1ccccc1O
T/C (dose: 50.0 mg/kg/injection, schedule: Q01DX001 (ip), vehicle: other): 90 % of control | T/C (dose: 100.0 mg/kg/injection, schedule: Q01DX001 (ip), vehicle: other): 93 % of control | T/C (dose: 200.0 mg/kg/injection, schedule: Q01DX001 (ip), vehicle: other): 101 % of control | T/C (dose: 400.0 mg/kg/injection, schedule: Q01DX001 (ip), vehicle: other): 95 % of control

OCCOc1ccc(-c2ccccc2)cc1
T/C (dose: 75.0 mg/kg/injection, schedule: Q04DX002 (ip), vehicle: Klucel (hydroxypropylcellulose) (HPC)): 101 % of control | T/C (dose: 150.0 mg/kg/injection, schedule: Q04DX002 (ip), vehicle: Klucel (hydroxypropylcellulose) (HPC)): 105 % of control | T/C (dose: 300.0 mg/kg/injection, schedule: Q04DX002 (ip), vehicle: Klucel (hydroxypropylcellulose) (HPC)): 108 % of control

COc1ccc(C(=O)/C=C/c2ccccc2O)cc1
T/C [11]: 104 % of control | T/C (dose: 150.0 mg/kg/injection, schedule: Q04DX003 (ip), vehicle: saline): 101 % of control | T/C (dose: 300.0 mg/kg/injection, schedule: Q04DX003 (ip), vehicle: saline): 96 % of control

C=CC1(CCC(C)C)C(=O)NC(=O)NC1=O
T/C [10]: 91 % of control | T/C [12]: 105 % of control | T/C (dose: 300.0 mg/kg/injection, schedule: Q01DX001 (ip), vehicle: saline): 98 % of control

Brc1ccc2c(c1)-c1ccccc1C1=NCCN12
T/C [1]: 100 % of control | T/C (dose: 10.0 mg/kg/injection, schedule: Q01DX009 (ip), vehicle: Klucel (hydroxypropylcellulose) (HPC)): 101 % of control | T/C (dose: 20.0 mg/kg/injection, schedule: Q04DX003 (ip), vehicle: Klucel (hydroxypropylcellulose) (HPC)): 86 % of control

COc1ccc2c3c1OC1C(C)=CCC4C(C2)N(C)CCC314 (stereo unspecified)
T/C [10]: 101 % of control

CCc1ccc(N=Nc2ccc(Br)cc2)cc1
T/C [13]: 93 % of control | T/C [14]: 98 % of control | T/C (dose: 400.0 mg/kg/injection, schedule: Q01DX001 (ip), vehicle: carboxymethylcellulose (CMC)): 98 % of control

CCc1ccccc1NC(=O)Nc1cccc2ccccc12
T/C (dose: 100.0 mg/kg/injection, schedule: Q01DX009 (ip), vehicle: gum acacia): 98 % of control | T/C (dose: 100.0 mg/kg/injection, schedule: Q04DX003 (ip), vehicle: gum acacia): 96 % of control | T/C (dose: 200.0 mg/kg/injection, schedule: Q01DX009 (ip), vehicle: gum acacia): 95 % of control | T/C (dose: 200.0 mg/kg/injection, schedule: Q04DX003 (ip), vehicle: gum acacia): 96 % of control | T/C (dose: 400.0 mg/kg/injection, schedule: Q01DX009 (ip), vehicle: gum acacia): 88 % of control | T/C (dose: 400.0 mg/kg/injection, schedule: Q04DX003 (ip), vehicle: gum acacia): 93 % of control

CCCCCCCCC1CCC(N)CC1 (stereo unspecified)
T/C [2]: 95 % of control | T/C [3]: 95 % of control | T/C [4]: 93 % of control | T/C [9]: 101 % of control | T/C [5]: 98 % of control

CCCCCCCCCCCSCCCCCCCCCCC
T/C [15]: 113 % of control | T/C [16]: 94 % of control | T/C [17]: 91 % of control
